19 molecules from US20220089575A1, “FARNESOID X RECEPTOR AGONISTS AND USES THEREOF” (Metacrine, Inc., priority 2017, published 2022) can be followed below.

Counter-ions that a name gives are not always drawn.

The target of the test is T1, hFXR (Homo sapiens, UniProt Q96RI1).
T1 construct: expressed in transfected cells; host or cells: CV-1 cells
T1 sequence (Q96RI1 1-486): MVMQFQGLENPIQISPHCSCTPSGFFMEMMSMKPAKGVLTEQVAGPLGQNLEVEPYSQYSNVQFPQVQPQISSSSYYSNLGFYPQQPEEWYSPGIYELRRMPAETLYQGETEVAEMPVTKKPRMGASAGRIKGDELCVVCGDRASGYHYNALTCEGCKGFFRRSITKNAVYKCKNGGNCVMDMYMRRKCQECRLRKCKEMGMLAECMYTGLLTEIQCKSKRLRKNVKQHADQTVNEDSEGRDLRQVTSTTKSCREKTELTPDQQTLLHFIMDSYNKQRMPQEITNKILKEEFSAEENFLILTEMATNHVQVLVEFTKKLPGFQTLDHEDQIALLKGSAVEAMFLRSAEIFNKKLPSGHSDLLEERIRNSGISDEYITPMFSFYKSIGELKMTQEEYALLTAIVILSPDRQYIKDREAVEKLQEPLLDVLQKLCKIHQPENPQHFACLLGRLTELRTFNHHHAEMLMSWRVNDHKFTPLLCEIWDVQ
T1 sequence (P19793 1-462 partner): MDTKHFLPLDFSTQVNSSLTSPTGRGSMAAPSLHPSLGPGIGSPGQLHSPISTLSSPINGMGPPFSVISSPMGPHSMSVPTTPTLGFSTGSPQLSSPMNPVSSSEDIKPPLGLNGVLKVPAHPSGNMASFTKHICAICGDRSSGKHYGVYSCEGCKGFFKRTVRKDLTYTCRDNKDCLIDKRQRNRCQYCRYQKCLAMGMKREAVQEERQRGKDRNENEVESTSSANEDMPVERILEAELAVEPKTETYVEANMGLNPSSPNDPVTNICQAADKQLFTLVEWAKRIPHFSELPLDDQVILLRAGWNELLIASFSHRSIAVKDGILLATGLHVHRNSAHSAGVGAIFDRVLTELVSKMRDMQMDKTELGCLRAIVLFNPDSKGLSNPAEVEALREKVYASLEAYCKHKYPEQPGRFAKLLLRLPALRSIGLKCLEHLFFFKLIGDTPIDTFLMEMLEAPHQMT
In words: In Vitro FXR Assay (TK): TK-ECRE-luc reporter in transfected CV-1 cells. The class given is cell-based. To be noted: 18 hrs, luminescence, maximum efficacy of <25% of the Fexarmine control classified as '+'. The procedure, abridged:
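CV-1 cells transiently co-transfected with hFXR, hRXR, TK-ECRE-luc and pCMX-YFP plasmids in charcoal-stripped serum medium. Serially diluted compounds added, cells incubated 18 h at 37° C, then lysed and luminescence read.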
The molecule `COc1ccc([C@H]2CC[C@H](CN(c3cc(-c4coc(C5CC5)n4)ccn3)C(=O)[C@H]3CC[C@H](OC(=O)N4CC(CN(C)C)C4)CC3)CC2)nc1C` [Compound 7.106, trans-4-((4-(2-Cyclopropyloxazol-4-yl)pyridin-2-yl)((trans-4-(5-methoxy-6-methylpyridin-2-yl)cyclohexyl)methyl)carbamoyl)cyclohexyl 3-((dimethylamino)methyl)azetidine-1-carboxylate] returned an EC50 not above 250 nM.

In turn, `COc1ccc([C@H]2CC[C@H](CN(c3cc(-c4coc(C5CC5)n4)ccn3)C(=O)[C@H]3CC[C@H](OC(=O)N4CCOC(C)C4)CC3)CC2)nc1C` (stereo partly drawn) [Compound 7.107, trans-4-((4-(2-Cyclopropyloxazol-4-yl)pyridin-2-yl)((trans-4-(5-methoxy-6-methylpyridin-2-yl)cyclohexyl)methyl)carbamoyl)cyclohexyl 2-methylmorpholine-4-carboxylate] showed an EC50 not above 250 nM.

`COc1ccc([C@H]2CC[C@H](CN(c3cc(-c4coc(C5CC5)n4)ccn3)C(=O)[C@H]3CC[C@H](OC(=O)N4CC(N5CC(O)C5)C4)CC3)CC2)nc1C` [Compound 7.108, trans-4-((4-(2-Cyclopropyloxazol-4-yl)pyridin-2-yl)((trans-4-(5-methoxy-6-methylpyridin-2-yl)cyclohexyl)methyl)carbamoyl)cyclohexyl 3-hydroxy-[1,3′-biazetidine]-1′-carboxylate] yielded an EC50 not above 250 nM.

As for `CCc1nc(-c2ccnc(N(C[C@H]3CC[C@H](c4ccc(OC)c(C)n4)CC3)C(=O)[C@H]3CC[C@H](OC(=O)N4CC(O)C4)CC3)c2)co1` [Compound 7.109, trans-4-((4-(2-Ethyloxazol-4-yl)pyridin-2-yl)((trans-4-(5-methoxy-6-methylpyridin-2-yl)cyclohexyl)methyl)carbamoyl)cyclohexyl 3-hydroxyazetidine-1-carboxylate], the EC50 is not above 250 nM.

`COc1ccc([C@H]2CC[C@H](CN(c3cccc(-c4cnn(C5CC5)c4)c3)C(=O)[C@H]3CC[C@H](OC(=O)N4CC(C[S+](C)[O-])C4)CC3)CC2)cc1C` (stereo partly drawn) [Compound 8, trans-4-((3-(1-Cyclopropyl-1H-pyrazol-4-yl)phenyl)((trans-4-(4-methoxy-3-methylphenyl)cyclohexyl)methyl)carbamoyl)cyclohexyl 3-((methylsulfinyl)methyl)azetidine-1-carboxylate]: the half-maximal effective concentration (EC50) was not above 250 nM.

`COc1ccc([C@H]2CC[C@H](CN(c3cccc(-c4cnn(C5CC5)c4)c3)C(=O)[C@H]3CC[C@H](OC(=O)N4CC([S+](C)[O-])C4)CC3)CC2)cc1C` (stereo partly drawn) [Compound 8.01, trans-4-((3-(1-Cyclopropyl-1H-pyrazol-4-yl)phenyl)((trans-4-(4-methoxy-3-methylphenyl)cyclohexyl)methyl)carbamoyl)cyclohexyl 3-(methylsulfinyl)azetidine-1-carboxylate]: the EC50 is not above 250 nM.

As to `COc1ccc([C@H]2CC[C@H](CN(c3cccc(-c4cnn(C5CC5)c4)c3)C(=O)[C@H]3CC[C@H](OC(=O)N4CC(CS(C)(=O)=O)C4)CC3)CC2)cc1C` [Compound 9, trans-4-((3-(1-cyclopropyl-1H-pyrazol-4-yl)phenyl)((trans-4-(4-methoxy-3-methylphenyl)cyclohexyl)methyl)carbamoyl)cyclohexyl 3-((methylsulfonyl)methyl)azetidine-1-carboxylate], the EC50 is not above 250 nM.

Molecule `COc1ccc([C@H]2CC[C@H](CN(c3cccc(-c4cnn(C5CC5)c4)c3)C(=O)[C@H]3CC[C@H](OC(=O)[C@H]4CC[C@H](O)CC4)CC3)CC2)cc1C` [Compound 10, trans-4-((3-(1-Cyclopropyl-1H-pyrazol-4-yl)phenyl)((trans-4-(4-methoxy-3-methylphenyl)cyclohexyl)methyl)carbamoyl)cyclohexyl trans-4-hydroxycyclohexanecarboxylate] yielded an EC50 not above 250 nM.

With `CNCCO[C@H]1CC[C@H](C(=O)N(C[C@H]2CC[C@H](c3ccc(OC)c(C)c3)CC2)c2cccc(-c3cnc(C4CC4)s3)c2)CC1` [Compound 11, trans-N-(3-(2-Cyclopropylthiazol-5-yl)phenyl)-N-((trans-4-(4-methoxy-3-methylphenyl)cyclohexyl)methyl)-4-(2-(methylamino)ethoxy) cyclohexanecarboxamide hydrochloride], the EC50 is 250 to 1000 nM.

`COc1ccc([C@H]2CC[C@H](CN(c3cccc(-c4cnn(C(C)C)c4)c3)C(=O)[C@H]3CC[C@H](OCC(=O)O)CC3)CC2)cc1C` [Compound 12, 2-((trans-4-((3-(1-Isopropyl-1H-pyrazol-4-yl)phenyl)((trans-4-(4-methoxy-3-methylphenyl)cyclohexyl)methyl)carbamoyl)cyclohexyl)oxy)acetic acid] gave an EC50 not above 250 nM.

`COc1ncc(-c2cccc(N(C[C@H]3CC[C@H](c4ccc(OC)c(C)c4)CC3)C(=O)[C@H]3CC[C@H](OC(=O)N(C)C)CC3)c2)s1` [Compound 13, trans-4-(((trans-4-(4-Methoxy-3-methylphenyl)cyclohexyl)methyl)(3-(2-methoxythiazol-5-yl)phenyl)carbamoyl)cyclohexyl dimethylcarbamate] returned an EC50 not above 250 nM.

Take `COCCO[C@H]1CC[C@H](C(=O)N(C[C@H]2CC[C@H](c3ccc(OC)c(C)c3)CC2)c2cccc(-c3cnc(OC)s3)c2)CC1` [Compound 13.01, trans-N-((trans-4-(4-Methoxy-3-methylphenyl)cyclohexyl)methyl)-4-(2-methoxyethoxy)-N-(3-(2-methoxythiazol-5-yl)phenyl) cyclohexanecarboxamide]: the EC50 was not above 250 nM.

Molecule `COCCCO[C@H]1CC[C@H](C(=O)N(C[C@H]2CC[C@H](c3ccc(OC)c(C)c3)CC2)c2cccc(-c3cnc(OC)s3)c2)CC1` [Compound 13.02, trans-N-((trans-4-(4-Methoxy-3-methylphenyl)cyclohexyl)methyl)-4-(3-methoxypropoxy)-N-(3-(2-methoxythiazol-5-yl)phenyl) cyclohexanecarboxamide] gave an EC50 not above 250 nM.

Turning to `COc1ncc(-c2cccc(N(C[C@H]3CC[C@H](c4ccc(OC)c(C)c4)CC3)C(=O)[C@H]3CC[C@H](OCCO)CC3)c2)s1` [Compound 13.03, trans-4-(2-Hydroxyethoxy)-N-((trans-4-(4-methoxy-3-methylphenyl)cyclohexyl)methyl)-N-(3-(2-methoxythiazol-5-yl)phenyl)cyclohexanecarboxamide], the concentration for a half-maximal effect (EC50) is not above 250 nM.

In turn, `COc1ncc(-c2cccc(N(C[C@H]3CC[C@H](c4ccc(OC)c(C)c4)CC3)C(=O)[C@H]3CC[C@H](OCCCO)CC3)c2)s1` [Compound 13.04, trans-4-(3-Hydroxypropoxy)-N-((trans-4-(4-methoxy-3-methylphenyl)cyclohexyl)methyl)-N-(3-(2-methoxythiazol-5-yl)phenyl) cyclohexanecarboxamide] came in with an EC50 not above 250 nM.

The molecule `COc1ccc([C@H]2CC[C@H](CN(c3cccc(-c4cnc(C5CC5)s4)c3)C(=O)[C@H]3CC[C@H](OCCN(C)C)CC3)CC2)cc1C` [Compound 13.05, trans-N-(3-(2-Cyclopropylthiazol-5-yl)phenyl)-4-(2-(dimethylamino)ethoxy)-N-((trans-4-(4-methoxy-3-methylphenyl)cyclohexyl)methyl) cyclohexanecarboxamide] registered a concentration giving a half-maximal response (EC50) of 250 to 1000 nM.

Consider `CCOC(=O)C[C@H]1CC[C@H](C(=O)N(C[C@H]2CC[C@H](c3ccc(OC)c(C)n3)CC2)c2cccc(-c3cnn(C4CC4)c3)c2)CC1` [Compound 14, Ethyl 2-(trans-4-((3-(1-cyclopropyl-1H-pyrazol-4-yl)phenyl)((trans-4-(5-methoxy-6-methylpyridin-2-yl)cyclohexyl)methyl)carbamoyl)cyclohexyl)acetate], for which the EC50 was not above 250 nM.

In the case of `COc1ccc([C@H]2CC[C@H](CN(c3cccc(-c4cnn(C5CC5)c4)c3)C(=O)[C@H]3CC[C@H](CO)CC3)CC2)cc1C` [Compound 15, trans-N-(3-(1-Cyclopropyl-1H-pyrazol-4-yl)phenyl)-4-(hydroxymethyl)-N-((trans-4-(4-methoxy-3-methylphenyl)cyclohexyl)methyl) cyclohexanecarboxamide], the EC50 is not above 250 nM.

On to `COc1ncc(-c2cccc(N(C[C@H]3CC[C@H](c4ccc(OC)c(C)c4)CC3)C(=O)[C@H]3CC[C@H](CO)CC3)c2)s1` [Compound 15.01, trans-4-(Hydroxymethyl)-N-((trans-4-(4-methoxy-3-methylphenyl)cyclohexyl)methyl)-N-(3-(2-methoxythiazol-5-yl)phenyl)cyclohexanecarboxamide], for which the EC50 was not above 250 nM.

One may read the EC50 as the concentration at which the effect is half-maximal. A low value points to an effect from little substance.
